Source: patent US10421761B2, “Compounds for kinase modulation, and indications therefor” (Plexxikon Inc., priority 2013, dated 2019)
Like-named read-outs stand apart in the source and are kept apart here.

Assays:
BRAF V600E = target: T1, BRAF V600E (Homo sapiens, UniProt P15056, V600E); test: BRAF V600E biochemical kinase activity assay (AlphaScreen, biotin-MEK1 substrate); details: BRAF V600E biochemical inhibitory activity
T1 construct: purchased Upstate Biotechnology

B9 (HRAS Q61L) cell line = test: B9 P-ERK cell activation assay (AlphaScreen); assay type: cell-based, mouse; details: Mus musculus, P-ERK cell activation, B9, read-out: Cell activity (EC50 μM) B9_pERK
Method in brief: (§1)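 Mouse B9 (HRAS-driven skin SCC) or human IPC-298 melanoma cells treated with an 8-point compound titration for one hour at 37° C., then lysed. ERK1/2 phosphorylation at Thr202/Tyr204 read by AlphaScreen with total-ERK and phospho-ERK antibodies.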

[1] = test system: IPC-298 (NRAS Q61L) cell line; test: IPC-298 P-ERK cell activation assay (AlphaScreen); assay type: cell-based, human; details: Homo sapiens, P-ERK cell activation, IPC-298, read-out: Cell activity (EC50 μM) IPC-298_P-ERK
Method in brief: as §1

[2] = test system: A375 (BRAF V600E) cell line; test: A375 P-ERK inhibition assay (AlphaScreen); assay type: cell-based, human; details: Homo sapiens, A-375; A375_P-ERK
Method in brief: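 A375 cells treated with 8-point compound titration for 1 h at 37° C, then lysed. ERK1/2 Thr202/Tyr204 phosphorylation measured by AlphaScreen, using biotinylated total-ERK antibody on donor beads and phospho-specific antibody on acceptor beads.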

T1 sequence (P15056 whole entry V600E): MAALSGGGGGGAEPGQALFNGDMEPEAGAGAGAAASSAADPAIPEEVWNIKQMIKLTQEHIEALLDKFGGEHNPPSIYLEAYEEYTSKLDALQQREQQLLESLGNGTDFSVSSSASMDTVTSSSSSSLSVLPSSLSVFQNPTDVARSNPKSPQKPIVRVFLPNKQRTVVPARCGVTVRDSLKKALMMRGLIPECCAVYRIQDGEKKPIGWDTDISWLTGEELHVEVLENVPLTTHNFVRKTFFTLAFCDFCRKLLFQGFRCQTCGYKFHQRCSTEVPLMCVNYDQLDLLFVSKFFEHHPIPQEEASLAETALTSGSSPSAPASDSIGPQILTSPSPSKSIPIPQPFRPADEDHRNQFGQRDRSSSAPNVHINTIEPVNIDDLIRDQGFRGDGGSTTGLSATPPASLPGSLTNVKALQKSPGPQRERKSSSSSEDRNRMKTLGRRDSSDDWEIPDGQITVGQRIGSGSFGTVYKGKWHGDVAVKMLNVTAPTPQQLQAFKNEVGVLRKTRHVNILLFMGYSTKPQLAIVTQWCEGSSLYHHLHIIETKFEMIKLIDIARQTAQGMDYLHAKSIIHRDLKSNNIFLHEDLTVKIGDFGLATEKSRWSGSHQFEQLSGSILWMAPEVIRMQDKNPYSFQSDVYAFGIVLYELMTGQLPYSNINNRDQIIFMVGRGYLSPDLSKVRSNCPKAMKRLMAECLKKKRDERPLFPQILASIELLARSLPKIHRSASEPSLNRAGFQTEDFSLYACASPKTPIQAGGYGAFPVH

Row | Structure (SMILES) | IC50 (BRAF V600E) | EC50 (B9 (HRAS Q61L) cell line; class symbols) | EC50 ([1]; class symbols) | IC50 [2] | EC50 (B9 (HRAS Q61L) cell line; numeric bounds) | EC50 ([1]; numeric bounds)
1 | CCN(C)S(=O)(=O)Nc1cccc(C(=O)c2c[nH]c3ncnc(N[C@@H](C)C4CC4)c23)c1F [P-2080, 4-[[(1S)-1-cyclopropylethyl]amino]-5-[3-[[ethyl(methyl)sulfamoyl]amino]-2-fluoro-benzoyl]-7H-pyrrolo[2,3-d]pyrimidine] | 0.0001 to 1 µM |  |  | 0.0001 to 1 µM | > 10 µM | > 10 µM
2 | O=C(c1cccc(NS(=O)(=O)N2CCCC2)c1F)c1c[nH]c2ncnc(NCCCN3CCOCC3)c12 [P-2111, N-[2-fluoro-3-[4-(3-morpholinopropylamino)-7H-pyrrolo[2,3-d]pyrimidine-5-carbonyl]phenyl]pyrrolidine-1-sulfonamide] | 0.0001 to 1 µM |  |  | 0.0001 to 1 µM | > 10 µM | > 10 µM
3 | CCCNc1ncnc2[nH]cc(C(=O)c3c(F)ccc(NS(=O)(=O)N(C)CC)c3F)c12 [P-2099, 5-[3-[[ethyl(methyl)sulfamoyl]amino]-2,6-difluoro-benzoyl]-4-(propylamino)-7H-pyrrolo[2,3-d]pyrimidine] | 0.0001 to 1 µM |  |  | 0.0001 to 1 µM | > 10 µM | > 10 µM
4 | CN(C)S(=O)(=O)Nc1cc(F)cc(C(=O)c2c[nH]c3ncc(-c4cnc(C5CC5)nc4)cc23)c1F [P-2173, 5-(2-cyclopropylpyrimidin-5-yl)-3-[3-(dimethylsulfamoylamino)-2,5-difluoro-benzoyl]-1H-pyrrolo[2,3-b]pyridine] | 0.0001 to 1 µM |  |  | 0.0001 to 1 µM | > 10 µM | > 1 µM
5 | CCN(CC)S(=O)(=O)Nc1ccc(F)c(C(=O)c2c[nH]c3ncnc(NCC4CC4)c23)c1F [P-2052, 4-(cyclopropylmethylamino)-5-[3-(diethylsulfamoylamino)-2,6-difluoro-benzoyl]-7H-pyrrolo[2,3-d]pyrimidine] | 0.0001 to 1 µM |  |  | 0.0001 to 1 µM | > 10 µM | > 10 µM
6 | COCCNc1ncnc2[nH]cc(C(=O)c3cccc(NS(=O)(=O)N4CCCC4)c3F)c12 [P-2104, N-[2-fluoro-3-[4-(2-methoxyethylamino)-7H-pyrrolo[2,3-d]pyrimidine-5-carbonyl]phenyl]pyrrolidine-1-sulfonamide] | 0.0001 to 1 µM |  |  | 0.0001 to 1 µM | > 10 µM | > 10 µM
7 | CC(C)Nc1ncnc2[nH]cc(C(=O)c3c(F)ccc(NS(=O)(=O)N(C)C)c3F)c12 [P-2045, 5-[3-(dimethylsulfamoylamino)-2,6-difluoro-benzoyl]-4-(isopropylamino)-7H-pyrrolo[2,3-d]pyrimidine] | 0.0001 to 1 µM |  |  | 0.0001 to 1 µM | > 10 µM | > 10 µM
8 | CCCNc1ncnc2[nH]cc(C(=O)c3cccc(NS(=O)(=O)N(C)CC)c3F)c12 [P-2066, 5-[3-[[ethyl(methyl)sulfamoyl]amino]-2-fluoro-benzoyl]-4-(propylamino)-7H-pyrrolo[2,3-d]pyrimidine] | 0.0001 to 1 µM |  |  | 0.0001 to 1 µM | > 10 µM | > 10 µM
9 | O=C(c1c(F)ccc(NS(=O)(=O)N2CCCC2)c1F)c1c[nH]c2nccc(Cl)c12 [P-2025, N-[3-(4-chloro-1H-pyrrolo[2,3-b]pyridine-3-carbonyl)-2,4-difluoro-phenyl]pyrrolidine-1-sulfonamide] | 0.0001 to 1 µM |  |  | 0.0001 to 1 µM | > 10 µM | > 10 µM
10 | COc1ccnc2[nH]cc(C(=O)c3c(F)ccc(NS(=O)(=O)N(C)C)c3F)c12 [Compound P-2002, 3-[3-(dimethylsulfamoylamino)-2,6-difluoro-benzoyl]-4-methoxy-1H-pyrrolo[2,3-b]pyridine] | 0.0001 to 1 µM |  |  | 0.0001 to 1 µM | > 10 µM | > 10 µM
11 | Cc1cc2c(-c3sc(C(C)(C)C)nc3-c3cccc(NS(=O)(=O)N4CCCC4)c3F)ccnc2[nH]1 [P-2121, N-[3-[2-tert-butyl-5-(2-methyl-1H-pyrrolo[2,3-b]pyridin-4-yl)thiazol-4-yl]-2-fluoro-phenyl]pyrrolidine-1-sulfonamide] | 0.0001 to 1 µM |  |  | 0.0001 to 1 µM | > 10 µM | > 10 µM

Results, then the compound that gave them:

Row | IC50 (BRAF V600E) | EC50 (B9 (HRAS Q61L) cell line; class symbols) | EC50 ([1]; class symbols) | IC50 [2] | EC50 (B9 (HRAS Q61L) cell line; numeric bounds) | EC50 ([1]; numeric bounds) | Structure (SMILES)
12 | 0.0001 to 1 µM | 0.0001 to 1 µM | 0.0001 to 1 µM | 0.0001 to 1 µM |  |  | CC(C)(C)c1nc(-c2cccc(NS(=O)(=O)N3CC[C@@H](F)C3)c2F)c(-c2ccnc(N)n2)s1 [P-2129, (3R)-N-[3-[5-(2-aminopyrimidin-4-yl)-2-tert-butyl-thiazol-4-yl]-2-fluoro-phenyl]-3-fluoro-pyrrolidine-1-sulfonamide]
13 | 0.0001 to 1 µM |  |  | 0.0001 to 1 µM | > 10 µM | > 10 µM | CCC(C)S(=O)(=O)Nc1ccc(F)c(C(=O)c2c[nH]c3nccc(OC)c23)c1F (stereo not shown) [Compound P-2006, N-[2,4-difluoro-3-(4-methoxy-1H-pyrrolo[2,3-b]pyridine-3-carbonyl)phenyl]butane-2-sulfonamide]
14 | 0.0001 to 1 µM |  |  | 1 to 10 µM | > 10 µM | > 10 µM | CC(=O)Nc1ccc(NC(=O)c2c(F)ccc(NS(=O)(=O)N(C)C)c2F)cn1 [P-2034, N-(6-acetamido-3-pyridyl)-3-(dimethylsulfamoylamino)-2,6-difluoro-benzamide]
15 | 0.0001 to 1 µM |  |  | 1 to 10 µM | > 10 µM | > 10 µM | COc1ccnc2[nH]cc(C(=O)c3c(F)ccc(NS(=O)(=O)C4CCCCC4)c3F)c12 [Compound P-2005, N-[2,4-difluoro-3-(4-methoxy-1H-pyrrolo[2,3-b]pyridine-3-carbonyl)phenyl]cyclohexanesulfonamide]
16 | 0.0001 to 1 µM |  |  | 0.0001 to 1 µM | > 10 µM | > 10 µM | O=C(c1cccc(NS(=O)(=O)N2CCCC2)c1F)c1c[nH]c2ncnc(NC3CCC3)c12 [P-2081, N-[3-[4-(cyclobutylamino)-7H-pyrrolo[2,3-d]pyrimidine-5-carbonyl]-2-fluoro-phenyl]pyrrolidine-1-sulfonamide]
17 | 0.0001 to 1 µM |  |  | 0.0001 to 1 µM | > 10 µM | > 10 µM | O=C(c1c(F)ccc(NS(=O)(=O)C2CCOCC2)c1F)c1c[nH]c2ncnc(NCC3CC3)c12 [P-2058, N-[3-[4-(cyclopropylmethylamino)-7H-pyrrolo[2,3-d]pyrimidine-5-carbonyl]-2,4-difluoro-phenyl]tetrahydropyran-4-sulfonamide]
18 | 0.0001 to 1 µM |  |  | 1 to 10 µM | > 10 µM | > 10 µM | COc1ccnc2[nH]cc(C(=O)c3c(F)ccc(NS(=O)(=O)N4CCOCC4)c3F)c12 [P-2023, N-[2,4-difluoro-3-(4-methoxy-1H-pyrrolo[2,3-b]pyridine-3-carbonyl)phenyl]morpholine-4-sulfonamide]
19 | 0.0001 to 1 µM |  |  | 1 to 10 µM | > 10 µM | > 10 µM | COC(=O)C(CC(C)C)Nc1ncnc2[nH]cc(C(=O)c3cccc(NS(=O)(=O)N4CCCC4)c3F)c12 (stereo not shown) [P-2107, methyl 2-[[5-[2-fluoro-3-(pyrrolidin-1-ylsulfonylamino)benzoyl]-7H-pyrrolo[2,3-d]pyrimidin-4-yl]amino]-4-methyl-pentanoate]
20 | 0.0001 to 1 µM |  |  | 0.0001 to 1 µM | > 10 µM | > 10 µM | CCN(C)S(=O)(=O)Nc1cccc(C(=O)c2c[nH]c3ncnc(NC)c23)c1F [P-2062, 5-[3-[[ethyl(methyl)sulfamoyl]amino]-2-fluoro-benzoyl]-4-(methylamino)-7H-pyrrolo[2,3-d]pyrimidine]
21 | 0.0001 to 1 µM |  |  | 0.0001 to 1 µM | > 10 µM | > 10 µM | CCN(C)S(=O)(=O)Nc1ccc(F)c(C(=O)c2c[nH]c3ncnc(NC4CCOCC4)c23)c1F [P-2119, 5-[3-[[ethyl(methyl)sulfamoyl]amino]-2,6-difluoro-benzoyl]-4-(tetrahydropyran-4-ylamino)-7H-pyrrolo[2,3-d]pyrimidine]
22 | 0.0001 to 1 µM | 0.0001 to 1 µM | 0.0001 to 1 µM | 0.0001 to 1 µM |  |  | COC(=O)N[C@@H](C)CNc1nccc(-c2nn(C(C)C)cc2-c2cc(Cl)cc(NS(=O)(=O)C3CC3)c2F)n1 [P-2170, methyl N-[(1S)-2-[[4-[4-[5-chloro-3-(cyclopropylsulfonylamino)-2-fluoro-phenyl]-1-isopropyl-pyrazol-3-yl]pyrimidin-2-yl]amino]-1-methyl-ethyl]carbamate]
23 | 0.0001 to 1 µM |  |  | 0.0001 to 1 µM | > 10 µM | > 10 µM | CCN(C)S(=O)(=O)Nc1cccc(-c2nc(C(C)(C)C)sc2-c2ccnc(OC)n2)c1F [P-2088, 2-tert-butyl-4-[3-[[ethyl(methyl)sulfamoyl]amino]-2-fluoro-phenyl]-5-(2-methoxypyrimidin-4-yl)thiazole]
24 | 0.0001 to 1 µM |  |  | 0.0001 to 1 µM | > 10 µM | > 10 µM | O=C(c1cccc(NS(=O)(=O)N2CCCC2)c1F)c1c[nH]c2ncnc(NCC3CC3)c12 [P-2057, N-[3-[4-(cyclopropylmethylamino)-7H-pyrrolo[2,3-d]pyrimidine-5-carbonyl]-2-fluoro-phenyl]pyrrolidine-1-sulfonamide]
25 | 1 to 10 µM |  |  | 0.0001 to 1 µM | > 10 µM | > 10 µM | CCN(C)S(=O)(=O)Nc1cccc(-c2nc(C(C)(C)C)sc2-c2ccnc(Cl)n2)c1F [P-2085, 2-tert-butyl-5-(2-chloropyrimidin-4-yl)-4-[3-[[ethyl(methyl)sulfamoyl]amino]-2-fluoro-phenyl]thiazole]
